From patent US12024504B2, “1-methyl-1H-pyrazol-3-yl derivatives for use in the treatment of neovascular diseases” (EXONATE LIMITED, priority 2021, dated 2024)
In brackets after ≈: the same amount, converted by molar mass.

Key:
[1] = Porcine scleral permeability (modified Ussing chamber); assay type: in vitro ADME; conditions: for Papp at 24 h, 10 μg/mL: pig, pH 7.4, porcine excised eye tissue, 10 μg/mL compound on donor side
Experimental: Scleral permeability was measured using a modified Ussing chamber assembly in the initial eye drop formulation containing 1% hydroxypropyl methyl cellulose, 0.2% tyloxapol, 3.4% dextrose, 0.006% benzalkonium chloride, and 0.025% ethylenediaminetetraacetic acid with 1% DMSO in PBS (pH 7.4). Porcine excised eye tissues were mounted in the chambers such that the episcleral side faced the donor chamber and the retinal side faced the receiver chamber. The chambers were filled with equal volumes of eye drop formulation, with (donor side) or without (receiver side) 10 μg/mL compound. After 24 hours tissue was removed from the chamber and the receiver side (“vitreous”) sampled. Tissue was dissected into sclera, choroid/RPE, and retina and homogenised. A tracer (SPHINX7; WO 2015/159103) was added, and tissue extracted by acetonitrile extraction as described in Batson et al (2017). Compounds were then analysed by mass spectrometry as described in Batson et al (2017).
To determine whether compounds could get across the sclera of a larger animal, porcine sclera was clamped between two chambers and compounds were added to the sclera with eye drop formulation added to the bottom chamber and compounds added to the top chamber. After 24 hours, the fluid from the bottom chamber (vitreous) and the retinal tissue was isolated and compounds purified by methanol or acetonitrile extraction and HPLC.

SRPK1 = target: T1, SRPK1 (Homo sapiens, UniProt Q96SB4); assay: In vitro kinase assay (radioactive filter binding, 33P ATP); assay type: biochemical
T1 construct: purchased MRC Dundee Kinase Centre (external assay service)
Experimental: Kinase assays were carried out by the MRC Dundee Kinase Centre using a radioactive filter binding assay using ^33P ATP (Hastie, et al 2006. Nat Protoc. 2006; 1(2):968-71; Bain, et al 2007. Biochem J. 2007 Dec. 15; 408(3):297-315).

VEGF165b and VEGF165 = conditions: cited from earlier work
[2] = Solubility in eye drop formulation; assay type: physicochemical; conditions: aqueous with cosolvent or surfactant or cyclodextrin; initial eye drop formulation (1% HPMC, 0.2% tyloxapol, 3.4% dextrose, 1% DMSO in PBS); read-out: Maximum limit of solubility
[3] = tested on: choroidal neovascularisation; conditions: mouse models of choroidal neovascularisation, previously shown; cited from earlier work
[4] = 0.5 mg monthly, at one year; cited from earlier work

T1 sequence (Q96SB4 whole entry): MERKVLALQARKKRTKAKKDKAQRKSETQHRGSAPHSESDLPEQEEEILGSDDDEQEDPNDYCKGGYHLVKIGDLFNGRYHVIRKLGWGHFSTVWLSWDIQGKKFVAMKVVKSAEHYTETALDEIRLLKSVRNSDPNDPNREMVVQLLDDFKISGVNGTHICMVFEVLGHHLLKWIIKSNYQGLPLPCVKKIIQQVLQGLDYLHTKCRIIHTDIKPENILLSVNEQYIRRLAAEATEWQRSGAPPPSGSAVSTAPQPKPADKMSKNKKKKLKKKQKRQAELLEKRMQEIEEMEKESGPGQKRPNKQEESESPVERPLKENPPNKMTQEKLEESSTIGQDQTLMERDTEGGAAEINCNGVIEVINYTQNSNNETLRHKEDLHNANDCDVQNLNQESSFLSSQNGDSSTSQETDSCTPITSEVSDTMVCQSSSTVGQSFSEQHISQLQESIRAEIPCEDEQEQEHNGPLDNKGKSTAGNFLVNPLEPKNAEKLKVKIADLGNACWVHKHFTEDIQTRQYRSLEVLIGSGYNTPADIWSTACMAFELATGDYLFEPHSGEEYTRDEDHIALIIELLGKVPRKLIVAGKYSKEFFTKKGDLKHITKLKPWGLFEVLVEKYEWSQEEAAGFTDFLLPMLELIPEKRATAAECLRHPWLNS

With `O=C(Nc1cc(C(F)(F)F)ccc1N1CCN(Cc2cc[nH]n2)CC1)c1ccc(C2CCOCC2)o1` [Compound R, N-(2-(4-((1H-pyrazol-3-yl)methyl)piperazin-1-yl)-5-(trifluoromethyl)-phenyl)-5-(tetrahydro-2H-pyran-4-yl)furan-2-carboxamide, reference compound] the “Permeability across porcine sclera (in words)” value ([1]; 24 hours, FIG. 1) was “considerably lower permeability”.

`Cn1ccc(CN2CCCN(c3ccc(C(F)(F)F)cc3NC(=O)c3ccc(C4CCOCC4)o3)CC2)n1` [Compound 2, N-(2-(4-((1-methyl-1H-pyrazol-3-yl)methyl)-1,4-diazepan-1-yl)-5-(trifluoromethyl)phenyl)-5-(tetrahydro-2H-pyran-4-yl)furan-2-carboxamide] showed an IC50 (SRPK1) of 10 nM and a Papp at 24 h, 10 μg/mL [1] of 0.0442 ×10⁻⁶ cm/s.

With `Cn1ccc(CN2CCCN(c3ccc(Cl)cc3NC(=O)c3ccc(C4CCOCC4)o3)CC2)n1` [Compound 3, N-(5-chloro-2-(4-((1-methyl-1H-pyrazol-3-yl)methyl)-1,4-diazepan-1-yl)phenyl)-5-(tetrahydro-2H-pyran-4-yl)furan-2-carboxamide] the IC50 (SRPK1) was 35 nM, the Papp at 24 h, 10 μg/mL [1] was 0.0675 ×10⁻⁶ cm/s and the melting point was 148 to 150 °C.

For “bevicizumab: an anti-VEGF antibody from which Lucentis was derived”, the “Binding of VEGF165b relative to VEGF165” value (VEGF165b and VEGF165) is given as “equal potency”.

Molecule `Cc1ccc(Nc2nccc(N(C)c3ccc4c(C)n(C)nc4c3)n2)cc1S(N)(=O)=O` [pazopanib] has a solubility [2] of 80 µg/mL (≈ 183 µM).

For `O=C(Nc1cc(C(F)(F)F)ccc1N1CCN(Cc2ccccn2)CC1)c1ccc(-c2ccncc2)o1` [SPHINX31], the “Eye drop concentration of maximum effect” value [3] is given as 2 µg/mL.

B1: Lucentis: a novel humanized anti-VEGF antibody fragment (antibody, chains of the INN, looked up, V domains shown)
VH: EVQLVESGGGLVQPGGSLRLSCAASGYDFTHYGMNWVRQAPGKGLEWVGWINTYTGEPTYAADFKRRFTFSLDTSKSTAYLQMNSLRAEDTAVYYCAKYPYYYGTSHWYFDVWGQGTLVTVSS
VL: DIQLTQSPSSLSASVGDRVTITCSASQDISNYLNWYQQKPGKAPKVLIYFTSSLHSGVPSRFSGSGSGTDFTLTISSLQPEDFATYYCQQYSTVPWTFGQGTKVEIK
modifications: Fab
notes: a novel humanized anti-VEGF antibody fragment
For B1, the “Patients who maintained visual acuity (loss of <15 letters)” value [4] is listed as “approximately 95%” and the “Patients with improved vision (gain of ≥15 letters)” value [4] is listed as no more than 40%.
